# Test results reported in patent publication US10160954B2, “Engineered physical alignment of stem cell-derived cardiomyocytes” (The Regents of the University of California, priority 2013, dated 2018).
# Tested on: hESC-VCMs
# Assay: Effect of isoproterenol on control and P5-aligned hESC-VCM preparations (optical mapping)
# Type: cell-based, human
# Settings: for CV of control preparations: steady-state pacing at 1 Hz
# Description: HESC-VCM preparations were loaded with 4 μM di-4-ANEPPS (Invitrogen, USA) for 20 min at room temperature in Tyrode's solution, consisting of (mM) 140 NaCl, 5 KCl, 1 MgCl2, 1 CaCl2, 10 glucose, and 10 HEPES at pH 7.4, then washed twice before fluorescence imaging using a halogen light filtered by a 515±35 nm band-pass excitation filter and a 590 nm high-pass emission filter. High-resolution optical mapping of AP and conduction properties was performed using a MiCam Ultima (SciMedia, Calif., USA) with a 1X objective and a 1X condensing lens to yield a 10×10 mm^2 field of view. A custom heat plate was introduced to maintain the perfused Tyrode's solution at 37° C. Data were collected at a sampling rate of 200 Hz and analyzed using BV_Ana software (SciMedia). Isoproterenol (Sigma-Aldrich, N.Y., USA) was applied by perfusion at the concentrations indicated.
# Electrophysiological protocols were generated using a programmable stimulator (Master8, AMPI, Israel) with the stimuli delivered via a unipolar point-stimulation electrode (1.5× threshold, 10 ms duration) placed perpendicular to the preparation surface. […] The frequency was increased every minute in 0.1-Hz increments with a 5-sec pause.
# Mapping was performed during the last 5-10 seconds of each frequency. […] Programmed electrical stimulation, Standard (S1-S2) programmed electrical stimulation (PES) protocol was introduced to study the electrical restitution curve (ERC) of hESC-VCMs. A premature extra-stimulus (S2) was delivered after a train of eight S1 stimuli at a basic cycle length (BCL) of 650 ms. S1-S2 interval was initiated at 600 ms and consecutively shortened in steps of 20 ms until capture has failed. […] There was a pause of 10 s after each S2. The entire stimulation protocol was performed within 30 minutes after di-4-ANEPPS staining.
# [1] = P5-aligned preparations, 0.5 μM, n=3
smiles,measurement,setting,value
CC(C)NCC(O)c1ccc(O)c(O)c1 (stereo not shown) [isoproterenol],CV of control preparations,"0.1 μM isoproterenol, n=3",6.3 ± 1.4 cm/s
same,CV of control preparations,"0.5 μM isoproterenol, n=3",7.6 ± 1.1 cm/s
same,CV of control preparations,"1.0 μM isoproterenol, n=3",8.1 ± 0.6 cm/s
same,depolarization (upstroke) velocity,"FIG. 6, hESC-VCMs",increasing
same,AP duration,"FIG. 6F, hESC-VCMs",reduces
same,sustained functional reentrant arrhythmias,"P5-aligned preparations, 0.5 μM, n=2",no sustained functional reentrant arrhythmias could be observed
same,L-CV after isoproterenol,[1],7.76 cm/s
same,T-CV after isoproterenol,[1],4.91 cm/s
same,AR after isoproterenol application,"P5-aligned preparations, n=2",1.76
same,control preparations with spontaneous spiral waves (sustained functional reentrant arrhythmias),"control substrates, 2 of 3 preparations, 0.5 μM per FIG. 6C",66%
